Measurements taken from patent publication US20220177418A1, “INHIBITORS OF THE N-TERMINAL DOMAIN OF THE ANDROGEN RECEPTOR” (The Regents of the University of California, priority 2019, published 2022).

Tests used:
Assay type in all cases: cell-based
[1] = tested on: AR-expressing (AR-positive) prostate cancer cell lines; assay: MTT cell viability assay, AR-positive cells; details: growth inhibition grade, 6 days
Method: (§1) FIGS. 3A-Q. Growth inhibitory effects of selected compounds. The indicated cells were exposed to the indicated compounds for 6 days; cell viability was measured by MTT assay, and specific reporters were assayed using literature conditions. Results were normalized to that of vehicle control. Experiments were performed in quadruplicate; results are means±s.d.
(§2) JN053 and JN138-JN156 were synthesized and tested in biochemical and cell biologic assays that have been described elsewhere. The JN compounds were first studied in cell viability assays (MTT assay) to determine the efficacy and specificity of the JN compounds for inhibition of prostate cancer cell lines.
(§3) The growth inhibitory effect of the JN compounds was assessed through the MTT assay, which assesses the total number of viable cells in vitro. These experiments were performed in AR-expressing (AR-positive) prostate cancer cell lines to assess on target effects and AR-null (AR-negative) prostate cancer cell lines to assess off target effects (i.e. specificity).
AR-expressing (AR-pos): • LNCaP: full length AR • LNCaP AR: overexpression of full length AR • 22Rv1: full length AR and ARV7 • VCaP: full length AR and ARV7 • CWR22: full length AR and ARV7

[2] = tested on: AR-null (AR-negative) prostate cancer cell lines; assay: MTT cell viability assay, AR-negative cells; details: growth inhibition grade, 6 days
Method: as §1, §2, §3

androgen receptor (AR) = molecular target: T1, androgen receptor (AR) (Homo sapiens, UniProt P10275); assay: MMTV-luciferase reporter assay (AR-dependent); details: inhibition grade
T1 construct: either endogenously or exogenously express the full-length AR and ARV7
T1 sequence (P10275 whole entry): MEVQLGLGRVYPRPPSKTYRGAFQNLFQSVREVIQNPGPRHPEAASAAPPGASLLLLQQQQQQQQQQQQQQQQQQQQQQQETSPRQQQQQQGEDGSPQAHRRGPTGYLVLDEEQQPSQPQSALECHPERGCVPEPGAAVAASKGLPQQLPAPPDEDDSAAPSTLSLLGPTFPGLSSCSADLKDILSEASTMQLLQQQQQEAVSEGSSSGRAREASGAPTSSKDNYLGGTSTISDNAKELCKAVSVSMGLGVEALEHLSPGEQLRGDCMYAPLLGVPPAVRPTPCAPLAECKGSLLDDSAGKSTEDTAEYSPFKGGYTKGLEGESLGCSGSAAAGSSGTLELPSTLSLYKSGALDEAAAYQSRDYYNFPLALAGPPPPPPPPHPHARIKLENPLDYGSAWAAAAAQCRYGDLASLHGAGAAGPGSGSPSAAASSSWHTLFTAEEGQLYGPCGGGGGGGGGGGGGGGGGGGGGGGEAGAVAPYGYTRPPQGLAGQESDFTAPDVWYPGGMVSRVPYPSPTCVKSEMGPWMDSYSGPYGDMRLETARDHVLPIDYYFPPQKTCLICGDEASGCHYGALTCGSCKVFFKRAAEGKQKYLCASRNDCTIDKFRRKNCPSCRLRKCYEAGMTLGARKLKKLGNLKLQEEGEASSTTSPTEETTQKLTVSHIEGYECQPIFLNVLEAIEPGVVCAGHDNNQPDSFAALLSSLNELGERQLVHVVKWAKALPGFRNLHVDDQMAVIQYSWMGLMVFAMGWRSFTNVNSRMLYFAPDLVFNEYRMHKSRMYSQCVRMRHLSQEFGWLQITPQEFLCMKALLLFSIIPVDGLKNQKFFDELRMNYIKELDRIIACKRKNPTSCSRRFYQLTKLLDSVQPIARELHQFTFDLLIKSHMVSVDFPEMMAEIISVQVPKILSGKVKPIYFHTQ
Method: (§4) The biochemical assays include reporter assays to determine the activity and specificity of these JN compounds to inhibit the transcriptional activity of the androgen receptor (AR). […] The reporter assays were performed in replicates and across a wide range of concentrations (generally […]).
(§5) The reporter systems utilized include: • MMTV-luciferase: AR-dependent • ARE-luciferase: AR-dependent • GRE-luciferase: glucocorticoid receptor (GR)-dependent • CRE-luciferase: CREB-dependent • AP1-luciferase: AP1 (jun and fos family)-dependent: • AR-TAD-luciferase: dependent on AR transactivation domain • CREB-TAD-luciferase: dependent on CREB transactivation domain • JUN-TAD-luciferase: dependent on c-Jun transactivation domain

actin or the GR = assay: Western blot protein degradation, other proteins; details: FIGS. 11(A)-11(D)
Method: (§6) LNCaP-AR cells were treated with JN103 and cycloheximide (to inhibit translation) at the indicated doses and times (FIG. 11A). Cell protein was subjected to Western blotting for the indicated proteins. The same tests were performed on LNCaP-95 cells, HEK-293 cells engineered to ectopically express ARΔ567, PC3 cells, and T47D breast cancer cells.

AR = molecular target: T2, AR (Homo sapiens, UniProt P10275); assay: Western blot protein degradation, T47D breast cancer cells, AR; details: breast cancer cell line that co-expresses AR, ER, and PR (T47D)
T2 construct: a breast cancer cell line that co-expresses AR, ER, and PR; endogenous in cells; host or cells: T47D breast cancer cells
Method: as §6

[3] = tested on: 22Rv1 (full-length and splice variant AR); assay: Colony formation assay, 22Rv1; details: 22Rv1, 2-10 μm, two weeks
Method: (§7) DU145, PC3LNCaP-AR (full-length AR), 22Rv1 (full-length and splice variant AR), and VCaP cells (400 cells/well of 6-well plate) were treated with indicated 0 (pure DMSO), 2, 4, 6, 8, 10 μm of JN103 for two weeks. Colonies were visualized with methylene blue staining.

[4] = tested on: AR transcriptional program; assay: Whole transcriptomic RNA-sequencing, gene set expression analysis; details: LNCaP-AR and 22Rv1 cells, 10 μM, 8 hours
Method: Negative enrichment scores (NES are shown for the AR transcriptional program.
Whole transcriptomic RNA-sequencing was performed for two castration resistant cell lines (LNCaP-AR and 22Rv1), which were exposed to JN103 (10 μM) for 8 hours. The experimental results as determined by gene set expression analysis (FIG. 10) show negative enrichment scores (NES) for the AR transcriptional program.

[5] = tested on: VCaP (full-length and splice variant AR); assay: Colony formation assay, VCaP; details: 2-10 μm, two weeks
Method: as §7

full-length AR and AR-V7 = assay: Western blot protein degradation with cycloheximide, LNCaP-95 cells; details: endogenously expressed
Method: as §6

AR-null DU145 cells = assay: Colony formation assay, DU145; details: DU145, 2-10 μm, two weeks
Method: as §7

ARΔ567 = molecular target: T3, ARΔ567 (Homo sapiens, UniProt P10275); assay: Western blot protein degradation with cycloheximide, HEK-293 cells; details: ectopically expressed
T3 construct: expressed in transfected cells; host or cells: HEK-293 cells
T3 sequence (P10275 with tags, fused parts or gaps limits assumed): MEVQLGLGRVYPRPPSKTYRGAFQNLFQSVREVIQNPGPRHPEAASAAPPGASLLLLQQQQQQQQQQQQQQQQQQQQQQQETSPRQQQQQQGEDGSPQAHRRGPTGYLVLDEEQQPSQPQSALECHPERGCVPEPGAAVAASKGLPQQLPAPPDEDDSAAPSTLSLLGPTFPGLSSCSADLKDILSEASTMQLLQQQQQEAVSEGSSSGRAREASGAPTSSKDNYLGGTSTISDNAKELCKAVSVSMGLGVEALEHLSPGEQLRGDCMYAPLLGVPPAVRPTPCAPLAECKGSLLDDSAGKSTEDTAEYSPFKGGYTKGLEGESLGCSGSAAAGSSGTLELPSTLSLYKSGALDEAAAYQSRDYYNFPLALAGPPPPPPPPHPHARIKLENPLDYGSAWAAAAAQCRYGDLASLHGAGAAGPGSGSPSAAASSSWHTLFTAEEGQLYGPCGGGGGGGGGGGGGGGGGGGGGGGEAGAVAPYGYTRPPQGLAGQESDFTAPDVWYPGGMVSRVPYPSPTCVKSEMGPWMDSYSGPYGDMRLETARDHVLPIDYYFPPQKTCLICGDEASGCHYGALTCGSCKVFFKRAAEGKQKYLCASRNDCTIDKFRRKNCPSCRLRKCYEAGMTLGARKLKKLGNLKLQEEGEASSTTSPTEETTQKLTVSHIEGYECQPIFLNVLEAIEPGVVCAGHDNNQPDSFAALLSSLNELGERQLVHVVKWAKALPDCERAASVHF
Method: as §6

[6] = molecular target: T4, full-length AR overexpressed in LNCaP-AR cells (Homo sapiens, UniProt P10275); assay: Western blot protein degradation with cycloheximide, LNCaP-AR cells
T4 construct: the full-length AR overexpressed in LNCaP-AR cells; expressed in transfected cells; host or cells: LNCaP-AR cells
T4 sequence (P10275 whole entry): as the sequence (P10275 whole entry) above
Method: as §6

[7] = tested on: breast cancer cell line (T47D); assay: MTT assay on non-prostate cancer cell lines; details: 2-8 μm, 5 days
Method: The growth-inhibitory effects of JN103 were also assessed in MTT assays on 20 non-prostate cancer cell lines. (FIG. 13). Cells were exposed to 0 (pure DMSO), 2, 4, 6, and 8 μm of JN103 for 5 days and subjected to MTT assay to determine cell viability. Results are means of quadruplicates.

ER or PR = assay: Western blot protein degradation, T47D breast cancer cells, ER and PR; details: breast cancer cell line that co-expresses AR
Method: as §6

PC3 cell = assay: Colony formation assay, PC3; details: PC3, at high concentrations, two weeks
Method: as §7

[8] = tested on: LNCaP-AR (full-length AR); assay: Colony formation assay, LNCaP-AR; details: 2-10 μm, two weeks
Method: as §7

[9] = molecular target: AR transactivation domain (Homo sapiens, UniProt P10275); assay: AR-TAD-luciferase reporter assay; details: inhibition grade
Sequence of AR transactivation domain (P10275 1-559 limits assumed): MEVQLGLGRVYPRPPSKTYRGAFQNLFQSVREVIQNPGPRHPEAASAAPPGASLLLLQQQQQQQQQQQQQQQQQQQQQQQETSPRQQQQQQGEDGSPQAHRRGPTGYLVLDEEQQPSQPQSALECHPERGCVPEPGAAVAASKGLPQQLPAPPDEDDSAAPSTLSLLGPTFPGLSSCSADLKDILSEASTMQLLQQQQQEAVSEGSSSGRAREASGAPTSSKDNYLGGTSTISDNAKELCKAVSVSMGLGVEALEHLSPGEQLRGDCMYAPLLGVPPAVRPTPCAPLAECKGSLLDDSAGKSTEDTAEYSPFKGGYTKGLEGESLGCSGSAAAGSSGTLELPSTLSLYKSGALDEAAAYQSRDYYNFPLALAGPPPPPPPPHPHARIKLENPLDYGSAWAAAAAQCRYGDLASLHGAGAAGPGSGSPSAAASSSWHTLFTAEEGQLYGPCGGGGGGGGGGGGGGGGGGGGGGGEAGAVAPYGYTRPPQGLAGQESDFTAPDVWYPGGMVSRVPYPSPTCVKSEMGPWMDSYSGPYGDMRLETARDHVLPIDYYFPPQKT
Method: as §4, §5

[10] = tested on: CREB transactivation domain; assay: CREB-TAD-luciferase reporter assay; details: inhibition grade
Method: (§8) The biochemical assays include reporter assays to determine the activity and specificity of these JN compounds to inhibit the transcriptional activity of the androgen receptor (AR). The reporter assays were conducted in various cell lines that either endogenously or exogenously express the full-length AR and ARV7, a constitutively active splice variant that is resistant to all clinically available AR targeting compounds. The reporter assays were performed in replicates and across a wide range of concentrations (generally […]).
as §5

[11] = molecular target: glucocorticoid receptor (GR) (Homo sapiens, UniProt P04150); assay: GRE-luciferase reporter assay; details: GR-dependent, inhibition grade
Sequence of glucocorticoid receptor (GR) (P04150 whole entry, species assumed): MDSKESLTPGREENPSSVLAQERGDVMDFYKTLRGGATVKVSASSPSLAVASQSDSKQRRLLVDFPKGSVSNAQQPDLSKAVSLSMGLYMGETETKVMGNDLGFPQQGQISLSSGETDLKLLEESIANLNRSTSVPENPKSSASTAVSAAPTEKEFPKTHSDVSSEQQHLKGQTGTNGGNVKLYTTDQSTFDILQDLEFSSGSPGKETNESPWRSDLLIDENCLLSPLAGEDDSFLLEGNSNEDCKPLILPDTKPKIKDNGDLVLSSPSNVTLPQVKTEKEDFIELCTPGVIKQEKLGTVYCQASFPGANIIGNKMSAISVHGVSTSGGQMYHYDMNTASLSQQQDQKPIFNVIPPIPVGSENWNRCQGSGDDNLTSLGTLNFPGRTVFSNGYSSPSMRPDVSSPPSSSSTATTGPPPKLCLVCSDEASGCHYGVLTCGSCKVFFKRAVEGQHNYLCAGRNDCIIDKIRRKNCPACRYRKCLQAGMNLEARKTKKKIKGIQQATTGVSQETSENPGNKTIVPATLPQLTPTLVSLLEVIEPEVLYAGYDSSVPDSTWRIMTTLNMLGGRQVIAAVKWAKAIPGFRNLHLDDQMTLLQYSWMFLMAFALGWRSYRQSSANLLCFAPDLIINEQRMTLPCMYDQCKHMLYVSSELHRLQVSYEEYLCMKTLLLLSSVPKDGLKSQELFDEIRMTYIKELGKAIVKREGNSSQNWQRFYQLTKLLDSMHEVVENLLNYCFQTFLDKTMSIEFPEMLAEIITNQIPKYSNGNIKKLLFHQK
Method: as §8, §5

[12] = tested on: c-Jun transactivation domain; assay: JUN-TAD-luciferase reporter assay; details: inhibition grade
Method: as §8, §5

AP1 (jun and fos family) = assay: AP1-luciferase reporter assay; details: inhibition grade
Method: as §8, §5

Row | Compound | MTT AR-Pos [1] | MTT AR Neg [2] | further results
1 | C=C1CC(c2ccc(OC)cc2)=C(c2ccccc2)C1=O [JN053] | LOW | LOW | MMTV (androgen receptor (AR)): MED
2 | C=C(C)C(=O)NC(=O)/C(=C/c1ccc(Cl)cc1)c1ccc(F)cc1 [JN103, (E)-3-(4-Chlorophenyl)-2-(4-fluorophenyl)-N-methacryloylacrylamide] |  |  | degradation of other proteins, including actin or the GR (actin or the GR): does not affect the degradation; degradation of the AR (AR): induces degradation of the AR; colony formation [3]: inhibits the growth; AR gene signature (gene set expression analysis) [4]: marked decrease in the AR gene signature; colony formation [5]: inhibits the growth; degradation of full-length AR and AR-V7 (full-length AR and AR-V7): potently induces time- and dose-dependent degradation; colony formation (AR-null DU145 cells): limited impact on colony formation; degradation of ARΔ567 (ARΔ567): potently induces time- and dose-dependent degradation; degradation of full-length AR [6]: potently induces time- and dose-dependent degradation; growth inhibition (MTT cell viability) [7]: significant growth inhibition; degradation of the ER or PR (ER or PR): not the ER or PR; colony formation (PC3 cell): only mild effects; colony formation [8]: inhibits the growth
3 | C=CC(=O)NC(=O)/C(=C/c1ccc(Cl)cc1)c1ccc(F)cc1 [JN139] | LOW | LOW | 
4 | CCC1=C(C)CN(C(=O)/C(=C/c2ccc(Cl)cc2)c2ccccc2)C1=O [JN140, (E)-1-(3-(4-Chlorophenyl)-2-phenylacryloyl)-3-ethyl-4-methyl-1,5-dihydro-2H-pyrrol-2-one] | HIGH | HIGH | 
5 | O=C1CCCN1C(=O)/C(=C/c1ccc(Cl)cc1)c1ccccc1 [JN141] | LOW | LOW | 
6 | O=C(C1=CCN(Cc2ccccc2)CC1)/C(=C/c1ccc(Cl)cc1)c1ccccc1 [JN142, (E)-1-(1-Benzyl-1,2,3,6-tetrahydropyridin-4-yl)-3-(4-chlorophenyl)-2-phenylprop-2-en-1-one] | LOW | LOW | 
7 | COC1=CC(=O)N(C(=O)/C(=C/c2ccc(Cl)cc2)c2ccc(F)cc2F)C1 [JN143] | LOW | LOW | 
8 | C#CCNC(=O)/C(=C/c1ccc(Cl)cc1)c1ccc(F)cc1F [JN144, (E)-3-(4-Chlorophenyl)-2-(2,4-difluorophenyl)-N-(prop-2-yn-1-yl)acrylamide] | LOW | LOW | 
9 | NS(=O)(=O)NC(=O)/C(=C/c1ccc(Cl)cc1)c1ccc(F)cc1F [JN145, (E)-3-(4-Chlorophenyl)-2-(2,4-difluorophenyl)-N-sulfamoylacrylamide] | LOW | LOW | 
10 | N#CC1(NC(=O)/C(=C/c2ccc(Cl)cc2)c2ccc(F)cc2F)CC1 [JN146] | LOW | LOW | 
11 | O=C(NC(=O)C1CC1)/C(=C/c1ccc(Cl)cc1)c1ccc(F)cc1F [JN147, (E)-N-(3-(4-Chlorophenyl)-2-(2,4-difluorophenyl)acryloyl)cyclopropanecarboxamide] | LOW | LOW | 
12 | Cc1cnc(/C(=C/c2ccc(Cl)cc2)c2ccc(F)cc2F)o1 [JN148, (E)-2-(2-(4-Chlorophenyl)-1-(2,4-difluorophenyl)vinyl)-5-methyloxazole] | LOW | LOW | 
13 | C=C1CN=C(/C(=C/c2ccc(Cl)cc2)c2ccc(F)cc2F)O1 [JN149, (E)-2-(2-(4-Chlorophenyl)-1-(2,4-difluorophenyl)vinyl)-5-methylene-4,5-dihydrooxazole] | LOW | LOW | 
14 | C=C(Cc1ccccc1)C(=O)NC(=O)/C(=C/c1ccc(Cl)cc1)c1ccc(F)cc1F [JN150] | HIGH | HIGH | 
15 | C=C(C)C(=O)OCCOC(=O)/C(=C/c1ccc(Cl)cc1)c1ccc(F)cc1F [JN151] | LOW | LOW | 
16 | C=C(C)C(=O)NC(=O)/C(=C/c1ccc(Cl)cc1)c1ccc(C(F)(F)F)cc1 [JN152] | HIGH | LOW | AR-TAD [9]: HIGH; CREB-TAD [10]: HIGH; GRE [11]: HIGH; MMTV (androgen receptor (AR)): HIGH
17 | C=C(C)C(=O)NC(=O)/C(=C/c1ccc(C(F)(F)F)nc1)c1ccccc1 [JN153] | HIGH | HIGH | 
18 | O=C(/C=C/C(F)(F)F)NC(=O)/C(=C/c1ccc(Cl)cc1)c1ccc(F)cc1F [JN154] | HIGH | LOW | 
19 | O=C(/C=C/c1ccccc1)NC(=O)/C(=C/c1ccc(Cl)cc1)c1ccc(F)cc1F [JN155] | LOW | LOW | 
20 | C=C(C)C(=O)NCCCNC(=O)/C(=C/c1ccc(Cl)cc1)c1ccc(F)cc1F [JN156, (E)-3-(4-Chlorophenyl)-2-(2,4-difluorophenyl)-N-(3-methacrylamidopropyl)acrylamide] | LOW | LOW | 
21 | CNC(=O)c1ccc(N2C(=S)N(c3ccc(C#N)c(C(F)(F)F)c3)C(=O)C2(C)C)cc1F [MDV3100, reference compound] | HIGH | LOW | JUN-TAD [12]: LOW; CREB-TAD [10]: LOW; AP1 (AP1 (jun and fos family)): HIGH; GRE [11]: LOW
